Experiment [1] relates to SW1573 cells. Nature of the experiment: Western blots of KRAS signaling nodes and cleaved PARP in SW1573 cells. Type of experiment: cell-based. From the text:
(§1) Western blots were used to analyze downstream KRAS signaling nodes (AKT, ERK, RSK, S6) and a marker of apoptosis (cleaved PARP). […] Taxol (paclitaxel) was used as a positive control.
For orientation: Immunoblotting shows a protein as a band on a membrane.

For experiment [2], the system named is H358 cells (KRAS G12C). As to the kind of experiment: Western blots of downstream KRAS signaling nodes and apoptosis markers in H358 cells. Type of experiment: cell-based. The following applies: for apoptosis based on cleaved PARP levels: H358 cells, erlotinib 5 μM. How it is done: FIG. 2 depicts western blot analysis of downstream targets of K-Ras signaling. […] Paclitaxel was used as a positive control. The western blots were probed with antibodies for p-AKT, p-ERK, total ERK, p-RSK, p-S6 and cleaved PARP. Cleaved PARP is indicative of apoptosis. B) A549 cells that express the G12S isoform of K-Ras were used a control for K-Ras G12C inhibitor specificity. A549 cells were treated as in A).
(§2) Western blots were used to analyze downstream KRAS signaling nodes (AKT, ERK, RSK, S6) and a marker of apoptosis (cleaved PARP).
as §1
Western blots were used to analyze downstream KRAS signaling nodes (AKT, ERK, RSK, S6) and a marker of apoptosis (cleaved PARP). […] Caspase activity was measured using a standard caspase activity luminescence assay (Capase-Glo, Promega).

Experiment [3] deals with KRAS G12C mutant cells lines (H358, H2122, H2030, H1792, Calu-1, MiaPaca2, and NCI-H23). Nature of the experiment: Caspase activity luminescence assay (Capase-Glo) with compound II-64 alone or in combination. Type of experiment: cell-based. The following applies: alone. How it is done: Caspase activity was measured using a standard caspase activity luminescence assay (Capase-Glo, Promega). Taxol (paclitaxel) was used as a positive control.

For experiment [4], the system named is H358 cells. As to the kind of experiment: Flow cytometry, cell cycle progression and apoptosis (sub-diploid cells). Type of experiment: cell-based. Conditions: single agents. Here is the method: B) The average apoptosis response of NCI-H358, NCI-H1792, NCI-H2122, and SW1573 cell lines generated by flow cytometry as described in A).
(§3) Apoptosis was measured via flow cytometry. Gated populations=% of subdiploid apoptotic cells.
as §3
FIG. 7 depicts apoptosis in NCI-H358 cells treated with II-64 (10 μM), SN38 (5 nM), or a combination treatment (II-64+SN38). […] Apoptosis was measured via flow cytometry. Gated populations=% of subdiploid apoptotic cells.
Flow cytometry was used to evaluate KRAS G12C inhibitor combination treatments.
Next, flow cytometry was used to evaluate a KRAS G12C inhibitor in combination with the chemotherapeutic agents paclitaxel or docetaxel.
In general terms: Flow cytometry measures light scatter and fluorescence of single cells or particles in a stream.

Experiment [5] concerns the target T1, KRAS G12C 1-169, his-tagged protein, GDP-loaded (Homo sapiens, UniProt P01116, G12C).
T1 construct: KRAS G12C 1-169, his-tagged protein, GDP-loaded
As to the kind of experiment: Biochemical assay: covalent binding to KRAS G12C analyzed by mass spectrometry. The following applies: compounds 247-342, measured at 30 min; listed as 272.

The subject of experiment [6] is mutant cells (H358, Calu-1, MiaPaca2, NCI-H23, SW1463, H1792). Nature of the experiment: Western blots / dot blot arrays of signaling pathways maintained or hyper-activated following KRAS G12C inhibition. The format is cell-based. Conditions: 48 hours, versus untreated cell lines. From the text: FIG. 1 provides western blots for identifying synergistic pathways for targeting in combination with KRAS G12C inhibition. Shown are dot blot arrays for detection of phosphorylated receptor tyrosine kinases (p-RTK) and phosphorylated signaling kinases (ie. p-ERK, or p-AKT) for indicated cell lines treated with indicated K-Ras G12C inhibitor. Notable signaling targets and their respective pathways that are induced or maintained following treatment are summarized for various cell lines.
Western blots were used to analyze downstream KRAS signaling nodes (AKT, ERK, S6, EGFR/HER2, SRC, MET) and a transcription factor (STAT3). […] Sustained or induced pathways were assessed by comparing untreated cell lines with those treated by compound I-272.

The test system of experiment [7] is Calu-1 cells. As to the kind of experiment: Western blots of KRAS signaling nodes and cleaved PARP in Calu-1 cells. The format is cell-based. The following applies: I-272 30, 100, 300, and 1000 nM, Dasatinib 150 nM.
Description: as §2

Experiment [8] relates to mutant cell lines (H358, NCI-H23, SW1463, H1792, Calu-1, SW1573). As to the kind of experiment: Western blots, KRAS G12C inhibitor with SRC inhibitors in multiple cell lines. Type of experiment: cell-based. The following applies: I-272 1 μM.
Description: as §2
As a control, a non-G12C cell line (A549) was subjected to the same single agent and combination treatments. The KRAS G12C inhibitors show no single agent or additive/synergistic effects in this line.

Experiment [9] has as its system mutant cell lines (H358, H1792, MiaPaca2). Nature of the experiment: Western blots, KRAS G12C inhibitor with JAK inhibitor momelotinib in multiple cell lines. Type of experiment: cell-based. Here is the method:
Western blots were used to analyze downstream KRAS signaling nodes (AKT, ERK, S6), a transcription factor (STAT3), and a marker of apoptosis (cleaved PARP). Treatment of mutant cell lines (H358, H1792, MiaPaca2) or a control cell line (A549) was tested with an exemplary KRAS G12C inhibitor (compound I-272, 0.3 and 1 μM) alone or in combination with momelotinib (JAK inhibitor, 5 μM). […] Specifically, when compound I-272 is used in combination with momelotinib (JAK inhibitor) PARP is detected in H358, H1792, and MiaPaca2.

Experiment [10] concerns mutant cell lines (NCI-H23, SW1573). Nature of the experiment: Western blots, KRAS G12C inhibitor with ruxolitinib or momelotinib. Type of experiment: cell-based. The following applies: I-272 1 μM. Here is the method: Western blots were used to analyze downstream KRAS signaling nodes (AKT, ERK, S6), transcription factors (STAT3, IκBα), protein marker (TBK1) and a marker of apoptosis (cleaved PARP). Treatment of mutant cell lines (NCI-H23, SW1573) were tested with an exemplary KRAS G12C inhibitor (compound I-272, 1 μM) alone or in combination with one of ruxolitinib (JAK 1/2 inhibitor, 1 and 5 μM) or momelotinib (JAK1/2, TBK1, IKKe inhibitor, 1 and 5 μM). […] Further, there is synergistic p-S6 inhibition in each of the combinations. Synergistic apoptosis strongly occurred when TBK1 and non-canonical NFκB signaling is inhibited.

Where [11] appears, read: I-272 0.3 and 1 μM, alone, 24 hours.

T1 sequence (P01116 1-169 isoform P01116-2 G12C): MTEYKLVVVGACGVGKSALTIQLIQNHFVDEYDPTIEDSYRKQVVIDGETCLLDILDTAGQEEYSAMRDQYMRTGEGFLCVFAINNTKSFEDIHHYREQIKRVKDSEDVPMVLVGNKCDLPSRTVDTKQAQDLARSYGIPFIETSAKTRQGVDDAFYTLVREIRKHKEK

As for `Cc1nc(NC(=O)N2CCC[C@H]2C(N)=O)sc1-c1ccnc(C(C)(C)C(F)(F)F)c1` [BYL719, Alpelisib], the “apoptosis based on cleaved PARP levels” value in experiment [1] is given as “does not induce robust apoptosis”.

With `C#Cc1cccc(Nc2ncnc3cc(OCCOC)c(OCCOC)cc23)c1` [erlotinib, reference compound], the “G1 arrest and induction of apoptosis” value in experiment [2] (H358 cells (FIG. 9, left panel)) is “G1 arrest with low to modest induction of apoptosis”. Besides, the “apoptosis based on c-caspase 3 levels” value in experiment [2] (H358 cells (FIG. 11)) was “does not induce robust apoptosis”. The “apoptosis based on cleaved PARP levels” value is reported as “does not induce robust apoptosis” in experiment [2] (24 hours, G12C inhibitors 10 μM, GDC0941 2 μM (FIG. 2)) and “does not induce robust apoptosis” in [2] (I-74 15 μM, PD0325901 100 nM, GDC0941 1 μM). The caspase activity entry in experiment [3] is “did not induce significant caspase activity”. Besides, in experiment [4], the “cell cycle arrest and induction of apoptosis (flow cytometry)” value is given as “G1 arrest with low to modest induction of apoptosis”.

Turning to `C=CC(=O)N1CCN(c2ncnc3c(F)c(-c4cc(O)cc5ccccc45)c(Cl)cc23)CC1` [Compound I-272, 1-(4-(6-chloro-8-fluoro-7-(3-hydroxynaphthalen-1-yl)quinazolin-4-yl)piperazin-1-yl)prop-2-en-1-one], the Binding % entry in [5] was “++++ (++++indicates binding activity greater than 75%)”. Besides, the “sustained or induced pathways following KRAS G12C inhibition” value in experiment [6] was “sustained or induced pathways suggesting targeting with RTK, PI3K, mTOR, SRC, and JAK/STAT inhibitors”. For the same compound, the “inhibition of downstream KRAS signaling nodes (Western blot)” value in experiment [7] (24 hours) was “clear and, at higher concentrations, nearly complete inhibition of p-ERK and p-RSK”. Also, the “apoptosis based on cleaved PARP levels” value is on record as “minimal cleaved PARP” in experiment [7]; “minimal cleaved PARP” in experiment [8] (dasatinib 100 nM, Saracatinib 2 μM); “minimal cleaved PARP” in [10] (ruxolitinib or momelotinib 1 and 5 μM). Also, the “inhibition of p-ERK” value in experiment [8] (alone, 24 hours) was “clear and, in some cases (H358, SW1463, Calu-1), nearly complete inhibition of p-ERK”; in experiment [9] (setting [11]), “some and nearly complete inhibition of p-ERK (in H1792 and H358 respectfully)”; in experiment [10] (alone, 24 hours), “clear and nearly complete inhibition of p-ERK”. Moreover, the “inhibition of p-S6” value in experiment [8] (dasatinib 100 nM, 24 hours) is “inhibition of p-S6 in H358, SW1463, H1792, and Calu-1 cell lines”. The “inhibition of S6” value in [9] (setting [11]) was “some to nearly complete inhibition of S6 (in H358)”. The “inhibition of p-ANK” value in experiment [9] (setting [11]) is given as “some inhibition of p-ANK (in H358)”. In addition, in [9] (I-272 0.3 and 1 μM, momelotinib 5 μM), the “induction of apoptosis (cleaved PARP)” value was “some induction of apoptosis as observed by the presence of cleaved PARP (in H358 and MiaPaca2)”. The “induction of STAT3” value in experiment [9] (I-272 alone, also control cell line A549) is “induces STAT3 in certain cell lines (slight in H358 and H1792, strong in MiaPaca2 and A549)”. In [10] (alone, 24 hours), the “inhibition of p-S6 and p-AKT” value was “inhibition of p-S6 and p-AKT in NCI-H23”.

The record behind these values is patent publication US10111874B2, “Combination therapies for treatment of cancer” (Araxes Pharma LLC, priority 2014, dated 2018).
